Measurements from article PMC4293695 (Bioorganic & medicinal chemistry letters, 2014).

What was measured:
[1] = target: PCP site of the NMDA receptor; assay type: binding; conditions: read-out: [3H]TCP Ki; [3H]TCP as radioligand; rat brain membrane suspensions; mean from two experiments
[2] = cited from earlier work

CN(C(=N)Nc1cccc2ccccc12)c1cccc(Cl)c1F [Ligand 34]
Ki [1]: 701 nM

CN(C(=N)Nc1cccc2ccccc12)c1cccc(I)c1 [Ligand 1]
measured logD [2]: 2.19
